The record followed here is ChEMBL document CHEMBL4334511, “Trivirensols: Selectively Bacteriostatic Sesquiterpene Trimers from the Australian Termite Nest-Derived Fungus Trichoderma virens CMB-TN16” (J Nat Prod, 2019).

Activity calls are given as the source filed them. The rule behind the calls is not given here.

The subject of data set [1] is SW-620. Kind of data set: Cytotoxicity against human SW620 cells assessed as reduction in cell viability upto 30 uM incubated for 48 hrs by MTT assay. The data set is classed as cell-based. Conditions: sw-620, 48 h. (Tetrazolium dyes change colour on reduction, which living cells bring about.)
Data set [2] relates to NCI-H460. Kind of data set: Cytotoxicity against human NCI-H460 cells assessed as reduction in cell viability upto 30 uM incubated for 48 hrs by MTT assay. It is filed as cell-based. Conditions: nci-h460, 48 h.
Data set [3] has as its system Candida albicans. Kind of data set: Antifungal activity against Candida albicans ATCC 90028 assessed as reduction in fungal growth at 0.01 to 30 uM incubated for 24 hrs by spectrophotometry based broth microdilution assay. The data set is classed as functional, organism-based. Background: Dilution methods test growth across graded concentrations, often in twofold steps.

The test system of data set [4] is Bacillus subtilis. Briefly: Antibacterial activity against Bacillus subtilis ATCC 6633 assessed as reduction in […] growth at 0.01 to 30 uM incubated for 24 hrs by spectrophotometry based broth microdilution assay. It is filed as functional, organism-based.
The test system of data set [5] is Staphylococcus aureus. Kind of data set: Antibacterial activity against Staphylococcus aureus ATCC 9144 assessed as reduction in […] growth at 0.01 to 30 uM incubated for 24 hrs by spectrophotometry based broth microdilution assay. The data set is classed as functional, organism-based.
In data set [6] the test system is Streptococcus pyogenes. Kind of data set: Antibacterial activity against Streptococcus pyogenes ATCC 12344 assessed as reduction in […] growth at 0.01 to 30 uM incubated for 24 hrs by spectrophotometry based broth microdilution assay. The data set is classed as functional, organism-based.
Data set [7] relates to Escherichia coli. Kind of data set: Antibacterial activity against Escherichia coli ATCC 11775 assessed as reduction in […] growth at 0.01 to 30 uM incubated for 24 hrs by spectrophotometry based broth microdilution assay. It is filed as functional, organism-based.
In data set [8] the test system is Staphylococcus aureus. Kind of data set: Antibacterial activity against methicillin-resistant Staphylococcus aureus AUS-RBWH-MRSA-02 assessed as reduction in […] growth at 0.01 to 30 uM incubated for 24 hrs by spectrophotometry based broth microdilution assay. The data set is classed as functional, organism-based.
Data set [9] relates to Escherichia coli. Briefly: Antibacterial activity against Escherichia coli KUW-kw-AmH-11 assessed as reduction in […] growth at 0.01 to 30 uM incubated for 24 hrs by spectrophotometry based broth microdilution assay. It is filed as functional, organism-based.
For data set [10], the system named is Pseudomonas aeruginosa. Briefly: Antibacterial activity against IMP producing Pseudomonas aeruginosa UAE-DBI-ZMH-91 assessed as reduction in […] growth at 0.01 to 30 uM incubated for 24 hrs by spectrophotometry based broth microdilution assay. It is filed as functional, organism-based.
Data set [11] deals with Pseudomonas aeruginosa. Kind of data set: Antibacterial activity against VIM producing Pseudomonas aeruginosa SA-EP-KFUH-40 assessed as reduction in […] growth at 0.01 to 30 uM incubated for 24 hrs by spectrophotometry based broth microdilution assay. It is filed as functional, organism-based.
Data set [12] concerns Klebsiella pneumoniae. Kind of data set: Antibacterial activity against NDM-producing Klebsiella pneumoniae SA-Rd-KAMC-037 assessed as reduction in […] growth at 0.01 to 30 uM incubated for 24 hrs by spectrophotometry based broth microdilution assay. It is filed as functional, organism-based.
Data set [13] relates to Klebsiella pneumoniae. Briefly: Antibacterial activity against OXA-48-producing Klebsiella pneumoniae SA-Rd-KAMC-014 assessed as reduction in […] growth at 0.01 to 30 uM incubated for 24 hrs by spectrophotometry based broth microdilution assay. The data set is classed as functional, organism-based.
Data set [14] concerns Acinetobacter baumannii. Kind of data set: Antibacterial activity against OXA-23-producing Acinetobacter baumannii SA-Rd-KAMC-083 assessed as reduction in […] growth at 0.01 to 30 uM incubated for 24 hrs by spectrophotometry based broth microdilution assay. The data set is classed as functional, organism-based.
Data set [15] relates to Enterococcus faecalis. Kind of data set: Antibacterial activity against vancomycin-resistant Enterococcus faecalis AUS-RBWH-VRE-01 assessed as reduction in […] growth incubated for 24 hrs by spectrophotometry based broth microdilution assay. Conditions: Enterococcus faecalis, AUS-RBWH-VRE-01, 24 h; read-out: IC50. It is filed as functional, organism-based.
Data set [16] deals with Enterococcus faecalis. Kind of data set: Antibacterial activity against vancomycin-resistant Enterococcus faecalis AUS-RBWH-VRE-01 assessed as fold reduction in growth by measuring colony formation unit at 30 uM incubated for 24 hrs by time kill assay. It is filed as functional.
Data set [17] can be described thus: Prodrug conversion in vancomycin-resistant Enterococcus faecalis AUS-RBWH-VRE-01 assessed as hydrolysis product butenolide formation at 30 uM incubated for 24 hrs by UHPLC-DAD-ESIMS analysis. It is filed as ADME.
A short description of data set [18]: Prodrug conversion in vancomycin-resistant Enterococcus faecalis AUS-RBWH-VRE-01 assessed as hydrolysis product trivirensol B formation at 30 uM incubated for 24 hrs by UHPLC-DAD-ESIMS analysis. The data set is classed as ADME.
Data set [19] in a line: Prodrug conversion in vancomycin-resistant Enterococcus faecalis AUS-RBWH-VRE-01 assessed as hydrolysis product butenolide formation at 30 uM incubated for 3-6 hrs by UHPLC-DAD-ESIMS analysis. It is filed as ADME.

Broadly, the IC50 is the point on the concentration scale where inhibition reaches its midpoint. In the case of `CC(C)[C@H]1CC[C@@](O)(COC(=O)C2=C[C@@H]3[C@@H](C(C)C)CC[C@@](O)(COC(=O)/C(=C/[C@@H]4[C@@H](C(C)C)CC[C@@]5(O)COC(=O)[C@@H]45)CO)[C@H]3C(=O)OC2)[C@H]2C(=O)OCC(C(=O)O)=C[C@H]12`, the Activity result in data set [1] and in [2] was “Non-Toxic” throughout. Moreover, the outcome in data set [3], in data set [4], in [5], in [6], in [7] and in data set [8] was inactive. Also, the result in [9], in data set [10], in [11], in data set [12], in [13] and in data set [14] was inactive. The IC50 in [15] turned out to be 8 µM. In addition, the “fold change (FC)” value in data set [16] came to 10000. The Drug metabolism result in [17] is “Metabolite_Notdetected”; in [18], “Metabolite_Detected”.

Turning to `CC(C)[C@H]1CC[C@@](O)(COC(=O)/C(=C/[C@@H]2[C@@H](C(C)C)CC[C@@]3(O)COC(=O)[C@@H]23)CO)[C@@H](C(=O)O)[C@@H]1/C=C(\CO)C(=O)O[C@@]12CC[C@H](C(C)C)[C@@H](/C=C(\CO)C(=O)O)[C@@H]1C(=O)OC2`, the Activity entry in data set [1] and in data set [2] was “Non-Toxic” each time. The result in data set [3], in data set [4], in data set [5], in data set [6], in [7] and in data set [8] was inactive. Besides, the outcome in data set [9], in data set [10], in [11], in data set [12], in [13] and in data set [14] was inactive. Besides, the IC50 in data set [15] is 10 µM. Besides, the “fold change (FC)” value in data set [16] amounted to 1000. For the same compound, the Drug metabolism result in data set [17] is “Metabolite_Notdetected”; in data set [19], “Metabolite_Detected”.
